We go through six molecules from PMC6766977 (International Journal of Cancer, 2019).

For series [1], the system named is LNCaP. The series can be described thus: Cell viability. The class given is cell-based, human. The note with it: read-out: IC50 inhibition of cell viability LNCaP; 1 nM R1881, 6 days; mean ± SD.
Series [2] has as its system KuCaP‐1 prostate cancer xenograft. Put plainly: KuCaP-1 patient-derived xenograft in vivo efficacy. On the set-up: species or system mice. The note with it: for ΔT/ΔC tumor volume: Day 68; for Maximal body weight loss: vehicle group 10%. Background: In xenograft studies the graft and the host belong to different species.
The test system of series [3] is LAPC‐4 prostate cancer xenograft. The series can be described thus: LAPC-4 xenograft in vivo efficacy. On the set-up: species or system mice. The note with it: for ΔT/ΔC tumor volume: Day 56.

One may read the IC50 as the concentration needed to halve the response being measured. Turning to `CC(=O)c1cc(C(=O)N[C@@H](C)Cn2ccc(-c3ccc(C#N)c(Cl)c3)n2)[nH]n1` [Keto‐darolutamide], the IC50 in series [1] is 3.21 µM.

For the molecule `CC(O)(CS(=O)(=O)c1ccc(F)cc1)C(=O)Nc1ccc(C#N)c(C(F)(F)F)c1` (centres unmarked) [Bicalutamide, reference compound], the IC50 in series [1] is 3.47 µM.

Regarding `C[C@@H](Cn1ccc(-c2ccc(C#N)c(Cl)c2)n1)NC(=O)c1cc([C@@H](C)O)[nH]n1` [(S,R)‐darolutamide], the IC50 in series [1] was determined as 4.71 µM.

In the case of `C[C@H](O)c1cc(C(=O)N[C@@H](C)Cn2ccc(-c3ccc(C#N)c(Cl)c3)n2)n[nH]1` [(S,S)‐darolutamide], in series [1], the IC50 was found to be 5.23 µM.

In the case of `CNC(=O)c1ccc(N2C(=S)N(c3ccc(C#N)c(C(F)(F)F)c3)C(=O)C2(C)C)cc1F` [Enzalutamide, reference compound], the ΔT/ΔC tumor volume in series [2] (KuCaP‐1, 30 mg/kg daily) turned out to be 70%; in series [2] (KuCaP‐1, 100 mg/kg daily), 99%.

For `CC(O)c1cc(C(=O)N[C@@H](C)Cn2ccc(-c3ccc(C#N)c(Cl)c3)n2)[nH]n1` (some centres unmarked) [Darolutamide], in series [1], the IC50 stood at 5.26 µM. For the same molecule, the ΔT/ΔC tumor volume was 25% in series [3] (LAPC‐4, 100 mg/kg bi‐daily oral); 23% in series [3] (LAPC‐4, 200 mg/kg once daily oral); 45% in series [2] (KuCaP‐1, 40 mg/kg bi‐daily oral); 26% in series [2] (KuCaP‐1, 100 mg/kg bi‐daily oral). Further, the “Reduction of FKBP5 expression in tumors” value in series [3] (LAPC‐4 tumors, highest treatment doses, 4 hr after final dosing) amounted to 50%. The “Maximal body weight loss” value in series [2] (KuCaP‐1, 40 mg/kg bi‐daily) turned out to be 8%; in series [2] (KuCaP‐1, 100 mg/kg bi‐daily), 6%.
